# Key:
# Assay type in all cases: cell-based
# [1] = tested on: HCT116 colorectal carcinoma cells; assay: Synergy of MBZ with chemotherapeutic agents (Chou-Talalay CI, Cell Titer Glo); settings: in combination with MBZ, 72 hour incubation
# Procedure: (§1) For in vitro experiments, cells were plated in triplicate and treated with a range of concentrations of MBZ and relevant chemotherapeutic agents in a complete Latin square.
# (§2) Cells were plated in triplicate and treated with a range of 5 concentrations of MBZ in combination with 5 concentrations of chemotherapeutic agents in a complete Latin square. Following a 72 hour incubation, cell viability was determined using Cell Titer Glo.
# [2] = tested on: Flo-1 esophageal carcinoma cells; assay: as above; settings: in combination with MBZ, 72 hour incubation
# Procedure: as §1, §2
# [3] = tested on: BxPC-3 pancreatic carcinoma cells; assay: as above; settings: in combination with MBZ, 72 hour incubation
# Procedure: as §1, §2
# [4] = tested on: Hs766t pancreatic carcinoma cells; assay: as above; settings: in combination with MBZ, 72 hour incubation
# Procedure: (§3) Cells were plated in triplicate and treated with a range of 5 concentrations of MBZ in combination with 5 concentrations of chemotherapeutic agents in a complete Latin square. Following a 72 hour incubation, cell viability was determined using Cell Titer Glo. The Combination index (CI) was determined based on the method described by Chou and Talalay (2010) with a CI value less than 0.9 indicating synergy.
# [5] = tested on: Colo-205 colorectal carcinoma cells; assay: as above; settings: in combination with MBZ, 72 hour incubation
# Procedure: as §1, §2
# [6] = tested on: Kato-III gastric carcinoma cells; assay: as above; settings: in combination with MBZ, 72 hour incubation
# Procedure: as §1, §2
# [7] = tested on: CCC-5 cholangiocarcinoma cells; assay: as above; settings: in combination with MBZ, 72 hour incubation
# Procedure: as §1, §2
# [8] = tested on: SNU16 gastric carcinoma cells; assay: Synergy of MBZ or HA-PLGA-MBZ with chemotherapeutic agents (Chou-Talalay CI, Cell Titer Glo); settings: in combination with MBZ; SNU16; 72 hour incubation
# Procedure: as §1, §2
# (§4) In table 22 below, cells were plated in triplicate and treated with a range of 5 concentrations of MBZ or HA-PLGA-MBZ nanoparticles containing a molar equivalent of MBZ, and 5 concentrations of relevant chemotherapeutic agents in a complete Latin square. Combination indexes (CI) were determined based on the method described by Chou-Talalay with a CI value less than 0.9 indicating synergy. […] Numbers in parentheses represent the range of synergistic CI values for each cell line and drug combination.
# [9] = tested on: STC-1 carcinoid tumor cell line; assay: Synergy of MBZ with chemotherapeutic agents (Chou-Talalay CI, Cell Titer Glo); settings: in combination with MBZ, 72 hour incubation
# Procedure: as §1, §3
# [10] = tested on: GIST-1 gastrointestinal stromal tumor cell line; assay: Synergy of MBZ with small molecule agents (Chou-Talalay CI, Cell Titer Glo); settings: in combination with MBZ, 72 hour incubation
# Procedure: (§5) For in vitro experiments, cells were plated in triplicate and treated with a range of concentrations of MBZ and relevant chemotherapeutic agents in a complete Latin square. Combination indexes (CI) were determined based on the method described by Chou and Talalay (Cancer Res. 2010 Jan. 15; 70(2):440-6. doi: 10.1158/0008-5472.CAN-09-1947. Epub 2010 Jan. 12).
# as §3
# LO68 mesothelioma cells = assay: Synergy of MBZ with chemotherapeutic agents (Chou-Talalay CI, Cell Titer Glo); settings: in combination with MBZ, 72 hour incubation
# Procedure: as §1, §3
# [11] = tested on: TOV-112D ovarian carcinoma cells; assay: as above; settings: in combination with MBZ, 72 hour incubation
# Procedure: as §1, §3
# [12] = tested on: MSTO-211H mesothelioma cells; assay: as above; settings: in combination with MBZ, 72 hour incubation
# Procedure: as §1, §3
# [13] = tested on: COV362 ovarian carcinoma cells; assay: as above; settings: in combination with MBZ, 72 hour incubation
# Procedure: as §1, §2
# JU77 mesothelioma cells = assay: as above; settings: in combination with MBZ, 72 hour incubation
# Procedure: as §1, §3
# [14] = tested on: CHP-212 neuroblastoma cells; assay: Synergy of MBZ or HA-PLGA-MBZ with chemotherapeutic agents (Chou-Talalay CI, Cell Titer Glo); settings: in combination with MBZ; CHP-212; 72 hour incubation
# Procedure: as §1, §2, §4
# [15] = tested on: SK-N-AS neuroblastoma cells; assay: Synergy of MBZ with chemotherapeutic agents (Chou-Talalay CI, Cell Titer Glo); settings: in combination with MBZ, 72 hour incubation
# Procedure: as §3
# [16] = tested on: OE-33 esophageal carcinoma cells; assay: as above; settings: in combination with MBZ, 72 hour incubation
# Procedure: as §1, §2
# [17] = tested on: H295R adrenocortical carcinoma cells; assay: as above; settings: in combination with MBZ, 72 hour incubation
# Procedure: as §5, §3
# [18] = tested on: SW13 adrenocortical carcinoma cells; assay: as above; settings: in combination with MBZ, 72 hour incubation
# Procedure: as §3
# [19] = tested on: SW-1271 small cell lung carcinoma cells; assay: as above; settings: in combination with MBZ, 72 hour incubation
# Procedure: as §1, §3
# [20] = tested on: DMS-114 small cell lung carcinoma cells; assay: as above; settings: in combination with MBZ, 72 hour incubation
# Procedure: as §5, §3
# [21] = tested on: TFK-1 cholangiocarcinoma cells; assay: as above; settings: in combination with MBZ, 72 hour incubation
# Procedure: as §5, §3
# [22] = tested on: PC12 pheochromocytoma/paraganglioma cell line; assay: Synergy of MBZ or HA-PLGA-MBZ with chemotherapeutic agents (Chou-Talalay CI, Cell Titer Glo); settings: in combination with MBZ; PC12; 72 hour incubation
# Procedure: as §1, §2, §4
# [23] = tested on: SK-LMS-1 leiomyosarcoma cells; assay: Synergy of MBZ with chemotherapeutic agents (Chou-Talalay CI, Cell Titer Glo); settings: in combination with MBZ, 72 hour incubation
# Procedure: as §3
# [24] = tested on: SK-UT-1B leiomyosarcoma cells; assay: as above; settings: in combination with MBZ, 72 hour incubation
# Procedure: as §5, §3
# [25] = tested on: SK-UT-1 leiomyosarcoma cells; assay: as above; settings: in combination with MBZ, 72 hour incubation
# Procedure: as §3
# [26] = tested on: HepG2 hepatocellular carcinoma cells; assay: as above; settings: in combination with MBZ, 72 hour incubation
# Procedure: as §1, §2
# [27] = tested on: HepG2-C3A hepatocellular carcinoma cells; assay: as above; settings: in combination with MBZ, 72 hour incubation
# Procedure: as §1, §3
smiles,measurement,setting,value
"O=c1[nH]cc(F)c(=O)[nH]1 [5-FU, 5-Fluorouracil]",CI range for the concentration pairings,[1],0.285-0.860
same,CI range for the concentration pairings,[2],0.370-0.855
same,CI range for the concentration pairings,[3],0.448-0.792
same,CI range for the concentration pairings,[4],0.170-0.877
same,CI range for the concentration pairings,[5],0.528-0.748
same,CI range for the concentration pairings,[6],0.073-0.558
same,CI range for the concentration pairings,[7],0.252-0.878
same,CI range for the concentration pairings,[8],0.429-0.827
same,CI range for the concentration pairings,[9],0.458-0.850
CCN1CCN(Cc2ccc(Nc3ncc(F)c(-c4cc(F)c5nc(C)n(C(C)C)c5c4)n3)nc2)CC1 [Abemaciclib],CI range for the concentration pairings,[10],0.390-0.701
N.N.O=C([O-])C1(C(=O)[O-])CCC1.[Pt+2] [Carboplatin],CI range for the concentration pairings,LO68 mesothelioma cells,0.574-0.865
same,CI range for the concentration pairings,[2],0.063-0.603
same,CI range for the concentration pairings,[11],0.506-0.845
same,synergy with MBZ (Yes/No),[12],No
same,CI range for the concentration pairings,[13],0.553-0.860
same,CI range for the concentration pairings,JU77 mesothelioma cells,0.539-0.841
same,CI range for the concentration pairings,[14],0.587-0.876
same,CI range for the concentration pairings,[15],0.433-0.891
same,CI range for the concentration pairings,[16],0.542-0.636
same,synergy with MBZ (Yes/No),[6],No
same,CI range for the concentration pairings,[8],0.409-0.783
N.N.[Cl][Pt][Cl] [Cisplatin],CI range for the concentration pairings,[17],0.544-0.771
same,CI range for the concentration pairings,[18],0.410-0.883
same,CI range for the concentration pairings,[3],0.469-0.762
same,CI range for the concentration pairings,[19],0.275-0.763
same,CI range for the concentration pairings,[20],0.223-0.837
same,CI range for the concentration pairings,[11],0.497-0.860
same,CI range for the concentration pairings,[4],0.658-0.847
same,CI range for the concentration pairings,[13],0.578-0.878
same,CI range for the concentration pairings,[14],0.653-0.896
same,CI range for the concentration pairings,[21],0.405-0.877
same,CI range for the concentration pairings,[15],0.141-0.746
same,CI range for the concentration pairings,[7],0.121-0.716
same,CI range for the concentration pairings,[9],0.441-0.785
O=P1(N(CCCl)CCCl)NCCCO1 (stereo not drawn) [Cyclophosphamide],CI range for the concentration pairings,[14],0.569-0.860
same,CI range for the concentration pairings,[22],0.388-0.879
same,CI range for the concentration pairings,[9],0.226-0.784
CN(C)/N=N/c1[nH]cnc1C(N)=O [Dacarbazine],CI range for the concentration pairings,[22],0.246-0.785
CC(=O)O[C@@]12CO[C@@H]1C[C@H](O)[C@@]1(C)C(=O)[C@H](O)C3=C(C)[C@@H](OC(=O)[C@H](O)[C@@H](NC(=O)OC(C)(C)C)c4ccccc4)C[C@@](O)([C@@H](OC(=O)c4ccccc4)[C@H]21)C3(C)C [Docetaxel],synergy with MBZ (Yes/No),[23],No
same,synergy with MBZ (Yes/No),[11],No
same,CI range for the concentration pairings,[13],0.399-0.867
COc1cccc2c1C(=O)c1c(O)c3c(c(O)c1C2=O)C[C@@](O)(C(=O)CO)C[C@@H]3O[C@H]1C[C@H](N)[C@H](O)[C@H](C)O1 [Doxorubicin],synergy with MBZ (Yes/No),[17],No
same,CI range for the concentration pairings,LO68 mesothelioma cells,0.433-0.875
same,CI range for the concentration pairings,[24],0.716-0.887
same,CI range for the concentration pairings,[18],0.771-0.850
same,CI range for the concentration pairings,[23],0.514-0.872
same,CI range for the concentration pairings,[12],0.288-0.700
same,CI range for the concentration pairings,JU77 mesothelioma cells,0.458-0.820
same,CI range for the concentration pairings,[14],0.646-0.883
same,synergy with MBZ (Yes/No),[25],No
same,CI range for the concentration pairings,[15],0.267-0.849
same,CI range for the concentration pairings,[9],0.419-0.829
COc1cc([C@@H]2c3cc4c(cc3[C@@H](O[C@@H]3O[C@@H]5CO[C@@H](C)O[C@H]5[C@H](O)[C@H]3O)[C@H]3COC(=O)[C@H]23)OCO4)cc(OC)c1O [Etoposide],CI range for the concentration pairings,[1],0.607-0.890
same,CI range for the concentration pairings,[18],0.618-0.710
same,CI range for the concentration pairings,[19],0.535-0.899
same,CI range for the concentration pairings,[20],0.551-0.832
same,CI range for the concentration pairings,[5],0.293-0.707
same,CI range for the concentration pairings,[14],0.647-0.891
same,CI range for the concentration pairings,[9],0.253-0.893
Nc1ccn([C@@H]2O[C@H](CO)[C@@H](O)C2(F)F)c(=O)n1 [Gemcitabine],CI range for the concentration pairings,[26],0.012-0.796
same,CI range for the concentration pairings,LO68 mesothelioma cells,0.525-0.845
same,CI range for the concentration pairings,[24],0.410-0.893
same,CI range for the concentration pairings,[3],0.502-0.770
same,CI range for the concentration pairings,[23],0.418-0.861
same,CI range for the concentration pairings,[4],0.149-0.874
same,CI range for the concentration pairings,[12],0.086-0.796
same,CI range for the concentration pairings,JU77 mesothelioma cells,0.362-0.712
same,CI range for the concentration pairings,[25],0.385-0.802
same,synergy with MBZ (Yes/No),[21],No
same,synergy with MBZ (Yes/No),[27],No
same,CI range for the concentration pairings,[7],0.394-0.855
O=P1(NCCCl)OCCCN1CCCl (stereo not drawn) [Ifosamide],CI range for the concentration pairings,[25],0.317-0.708
Cc1ccc(NC(=O)c2ccc(CN3CCN(C)CC3)cc2)cc1Nc1nccc(-c2cccnc2)n1 [Imatinib],CI range for the concentration pairings,[10],0.627-0.875
CCc1c2c(nc3ccc(OC(=O)N4CCC(N5CCCCC5)CC4)cc13)-c1cc3c(c(=O)n1C2)COC(=O)[C@]3(O)CC [Irinotecan],CI range for the concentration pairings,[1],0.545-0.793
same,CI range for the concentration pairings,[2],0.439-0.871
same,CI range for the concentration pairings,[3],0.659-0.793
same,synergy with MBZ (Yes/No),[4],No
same,CI range for the concentration pairings,[5],0.502-0.819
same,CI range for the concentration pairings,[16],0.589-0.757
same,synergy with MBZ (Yes/No),[6],No
same,CI range for the concentration pairings,[8],0.635-0.871
O=C1[O][Pt]2([NH][C@@H]3CCCC[C@H]3[NH]2)[O]C1=O [Oxaliplatin],CI range for the concentration pairings,[26],0.036-0.834
same,CI range for the concentration pairings,[1],0.493-0.728
same,CI range for the concentration pairings,[2],0.355-0.875
same,CI range for the concentration pairings,[3],0.455-0.758
same,CI range for the concentration pairings,[16],0.395-0.597
same,CI range for the concentration pairings,[6],0.587-0.897
same,CI range for the concentration pairings,[7],0.060-0.631
same,CI range for the concentration pairings,[8],0.571-0.883
CC(=O)O[C@H]1C(=O)[C@@]2(C)[C@H]([C@H](OC(=O)c3ccccc3)[C@]3(O)C[C@H](OC(=O)[C@H](O)[C@@H](NC(=O)c4ccccc4)c4ccccc4)C(C)=C1C3(C)C)[C@]1(OC(C)=O)CO[C@@H]1C[C@@H]2O [Paclitaxel],CI range for the concentration pairings,[2],0.430-0.864
same,CI range for the concentration pairings,[3],0.341-0.845
same,CI range for the concentration pairings,[11],0.367-0.839
same,CI range for the concentration pairings,[13],0.318-0.889
same,CI range for the concentration pairings,[6],0.193-0.508
same,CI range for the concentration pairings,[8],0.425-0.883
CC[C@]1(O)C[C@H]2CN(CCc3c([nH]c4ccccc34)[C@@](C(=O)OC)(c3cc4c(cc3OC)N(C=O)[C@H]3[C@@](O)(C(=O)OC)[C@H](OC(C)=O)[C@]5(CC)C=CCN6CC[C@]43[C@@H]65)C2)C1 [Vincristine],CI range for the concentration pairings,[22],0.274-0.871
CCC1=C[C@@H]2CN(C1)Cc1c([nH]c3ccccc13)[C@@](C(=O)OC)(c1cc3c(cc1OC)N(C)[C@H]1[C@@](O)(C(=O)OC)[C@H](OC(C)=O)[C@]4(CC)C=CCN5CC[C@]31[C@@H]54)C2 [Vinorelbine],CI range for the concentration pairings,LO68 mesothelioma cells,0.445-0.872
same,CI range for the concentration pairings,[12],0.087-0.885
same,CI range for the concentration pairings,JU77 mesothelioma cells,0.325-0.799

# Reference: patent publication US20190175560A1, “MEBENDAZOLE CANCER THERAPIES AND METHODS OF USE” (Shepherd Therapeutics, Inc., priority 2017, published 2019)
